ChEMBL document CHEMBL1201862, “PubChem BioAssay data set” (2004)
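Tested at 5 concentrations; 48 h exposure; 96-well plates; endpoints linearly interpolated, else capped at highest concentration. GI50 is the concentration that inhibits growth by half.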 Activity calls are given as the source filed them. No stated cut-off is given here; in the data, active = GI50 up to about 1.1 µM and inactive = higher.

Legend:
Test in all cases: NCI-60 cell line screen, 48 h
NCI-H23 = tested on: NCI-H23
CAKI-1 = tested on: CAKI-1
OVCAR-8 = tested on: OVCAR-8
MOLT-4 = tested on: MOLT-4
SNB-75 = tested on: SNB-75
SN12C = tested on: SN12C
NCI/ADR-RES = tested on: NCI/ADR-RES
A549 = tested on: A549
HOP-92 = tested on: HOP-92
UACC-257 = tested on: UACC-257
Hs-578T = tested on: Hs-578T
HT-29 = tested on: HT-29
SK-OV-3 = tested on: SK-OV-3
IGROV-1 = tested on: IGROV-1
MDA-MB-435 = tested on: MDA-MB-435
HCT-116 = tested on: HCT-116
A498 = tested on: A498
SR = tested on: SR
SF-295 = tested on: SF-295
LOX IMVI = tested on: LOX IMVI

Measured: GI50

C=C1C(=O)C23C(O)CC4C(C)(C)CCC(O)C4(C)C2CC(OC(C)=O)C1[C@H]3O (some centres not stated)
inactive: NCI-H23 2.44 µM | CAKI-1 2.37 µM | OVCAR-8 1.22 µM | MOLT-4 1.28 µM | SNB-75 8.61 µM | SN12C 3.15 µM | NCI/ADR-RES 15.3 µM | A549 4.06 µM | HOP-92 2.26 µM | UACC-257 3.28 µM | Hs-578T 24 µM | SK-OV-3 17.3 µM | IGROV-1 4.79 µM | MDA-MB-435 7.96 µM | HCT-116 2 µM | A498 15.8 µM | SR 1.18 µM | SF-295 8.05 µM
active: HT-29 0.351 µM | LOX IMVI 0.188 µM

CCSC(=O)/C=C1\CN(C(=O)OC(C)(C)C)C1C(=O)OC(C)(C)C (configuration not stated)
inactive: NCI-H23 2.6 µM | CAKI-1 6.56 µM | OVCAR-8 2.91 µM | MOLT-4 1.71 µM | SNB-75 2.59 µM | SN12C 1.86 µM | NCI/ADR-RES 2.74 µM | A549 12.1 µM | HOP-92 2.59 µM | UACC-257 4.21 µM | Hs-578T 4.17 µM | HT-29 4.23 µM | SK-OV-3 13.8 µM | IGROV-1 4.28 µM | MDA-MB-435 2.74 µM | HCT-116 1.55 µM | A498 11.2 µM | SF-295 12.1 µM | LOX IMVI 1.45 µM
active: SR 0.684 µM

Nc1n[nH]c(N)n1 [GUANAZOLE]
inactive: NCI-H23 5300 µM | CAKI-1 3550 µM | OVCAR-8 3400 µM | MOLT-4 3170 µM | SNB-75 9250 µM | SN12C 4930 µM | NCI/ADR-RES 2580 µM | A549 4420 µM | HOP-92 5190 µM | UACC-257 6430 µM | Hs-578T > 10000 µM | HT-29 5060 µM | SK-OV-3 3210 µM | IGROV-1 7000 µM | MDA-MB-435 > 9750 µM | HCT-116 5980 µM | A498 5470 µM | SR 3300 µM | SF-295 2360 µM | LOX IMVI 2960 µM

COc1ccc(N2C(=O)C3c4[nH]c5ccc(OCc6ccccc6)cc5c4C4CCC(C(C)C)CC4C3C2=O)cc1 (configuration not stated)
inactive: NCI-H23 17.4 µM | CAKI-1 > 30.7 µM | OVCAR-8 15.6 µM | MOLT-4 18.2 µM | SNB-75 2.23 µM | SN12C > 100 µM | NCI/ADR-RES 30.2 µM | A549 50.6 µM | HOP-92 32.1 µM | UACC-257 > 100 µM | Hs-578T 2.29 µM | HT-29 > 100 µM | SK-OV-3 17.7 µM | IGROV-1 > 39.6 µM | MDA-MB-435 > 100 µM | HCT-116 > 45.8 µM | A498 5.71 µM | SR 4.41 µM | SF-295 6.4 µM | LOX IMVI 80.5 µM

CC1=NN(C(=O)c2ccccc2O)C(c2ccccc2Cl)C1C(=O)Nc1ccccc1 (configuration not stated)
inactive: HOP-92 > 100 µM | HT-29 2.96 µM | SK-OV-3 10.9 µM
active: NCI-H23 < 0.0378 µM | CAKI-1 0.159 µM | OVCAR-8 0.0986 µM | MOLT-4 < 0.0302 µM | SN12C 0.0224 µM | NCI/ADR-RES 0.0458 µM | A549 < 0.0158 µM | UACC-257 0.283 µM | Hs-578T < 0.01 µM | IGROV-1 < 0.028 µM | MDA-MB-435 < 0.0195 µM | HCT-116 < 0.0196 µM | A498 < 0.01 µM | SR < 0.0322 µM | SF-295 0.0975 µM | LOX IMVI 0.0728 µM

Cc1ccc(/C(C#N)=C/c2cccc([N+](=O)[O-])c2)cc1
inactive: NCI-H23 > 100 µM | CAKI-1 > 100 µM | OVCAR-8 59.2 µM | SNB-75 19.5 µM | SN12C > 100 µM | NCI/ADR-RES > 100 µM | A549 > 100 µM | HOP-92 32.2 µM | UACC-257 > 100 µM | Hs-578T 27.4 µM | HT-29 > 100 µM | SK-OV-3 61.9 µM | IGROV-1 80.5 µM | MDA-MB-435 > 100 µM | HCT-116 76.2 µM | A498 59.4 µM | SR > 100 µM | SF-295 24.4 µM | LOX IMVI > 100 µM

CC(=O)/C(=C(/Br)I)c1ccccc1
inactive: NCI-H23 4.13 µM | CAKI-1 3.03 µM | OVCAR-8 11.6 µM | MOLT-4 1.73 µM | SNB-75 14.2 µM | SN12C 5.26 µM | NCI/ADR-RES 9.35 µM | A549 20 µM | HOP-92 10.5 µM | UACC-257 12.6 µM | Hs-578T 30.7 µM | HT-29 4.06 µM | SK-OV-3 28.6 µM | IGROV-1 10.9 µM | MDA-MB-435 3.01 µM | HCT-116 4.52 µM | A498 14.5 µM | SR 1.94 µM | SF-295 15.5 µM | LOX IMVI 9.84 µM

COC(=O)c1ccc(CCc2cc(O)ccc2O)cc1
inactive: NCI-H23 13.6 µM | CAKI-1 4.06 µM | OVCAR-8 2.85 µM | MOLT-4 1.77 µM | SNB-75 3.77 µM | SN12C 7.98 µM | NCI/ADR-RES 12.8 µM | A549 26.8 µM | HOP-92 9.25 µM | UACC-257 13 µM | Hs-578T 16.1 µM | HT-29 28.4 µM | SK-OV-3 38 µM | IGROV-1 6.49 µM | MDA-MB-435 6.08 µM | HCT-116 10.4 µM | A498 37.6 µM | SR 2.44 µM | SF-295 21.3 µM | LOX IMVI 6.12 µM

N/C(=N\O)N/N=C/c1ccc2c(c1)OCO2
inactive: NCI-H23 27 µM | CAKI-1 30.3 µM | OVCAR-8 12.5 µM | MOLT-4 24.8 µM | SN12C 34.4 µM | NCI/ADR-RES 6.75 µM | A549 14.7 µM | HOP-92 20.8 µM | UACC-257 39.5 µM | Hs-578T > 100 µM | HT-29 36.1 µM | SK-OV-3 47.4 µM | IGROV-1 25 µM | MDA-MB-435 31.4 µM | HCT-116 21.1 µM | A498 21 µM | SR 7.87 µM | SF-295 33.9 µM | LOX IMVI 17.4 µM

CNC(=O)OCc1nc(N=[N+]=[N-])n(C)c1COC(=O)NC
inactive: NCI-H23 54.2 µM | CAKI-1 20.7 µM | OVCAR-8 58.9 µM | MOLT-4 26 µM | SNB-75 49 µM | SN12C 55.7 µM | NCI/ADR-RES 69.8 µM | A549 61.7 µM | HOP-92 25.3 µM | UACC-257 > 100 µM | Hs-578T > 100 µM | HT-29 58.3 µM | IGROV-1 > 100 µM | MDA-MB-435 37.2 µM | HCT-116 46.2 µM | A498 32.3 µM | SR 21.3 µM | SF-295 67.1 µM | LOX IMVI 60.8 µM

CC(CCC(=O)O)(c1ccc(O)cc1)c1ccc(O)cc1
inactive: NCI-H23 > 100 µM | CAKI-1 > 100 µM | OVCAR-8 > 100 µM | MOLT-4 > 100 µM | SN12C > 100 µM | NCI/ADR-RES > 100 µM | A549 > 100 µM | HOP-92 > 100 µM | UACC-257 > 100 µM | Hs-578T > 100 µM | HT-29 > 100 µM | IGROV-1 > 100 µM | MDA-MB-435 > 100 µM | HCT-116 > 100 µM | A498 > 100 µM | SR > 100 µM | SF-295 > 100 µM | LOX IMVI > 100 µM

OCCCCn1cc(Cn2ncc3c(O)ncnc32)nn1
inactive: NCI-H23 > 100 µM | CAKI-1 > 100 µM | OVCAR-8 > 100 µM | MOLT-4 > 100 µM | SN12C > 100 µM | NCI/ADR-RES > 100 µM | A549 > 100 µM | HOP-92 > 100 µM | UACC-257 > 100 µM | Hs-578T > 100 µM | HT-29 > 100 µM | SK-OV-3 > 100 µM | IGROV-1 > 100 µM | MDA-MB-435 > 100 µM | HCT-116 > 100 µM | A498 > 100 µM | SR > 100 µM | SF-295 > 100 µM | LOX IMVI > 100 µM

CC1=NN(c2nc(N)nc(-c3cc4ccccc4oc3=N)n2)C(C)(C)C1
inactive: NCI-H23 16.1 µM | CAKI-1 17.3 µM | OVCAR-8 26.1 µM | MOLT-4 12.9 µM | SN12C 19.5 µM | NCI/ADR-RES 22 µM | A549 19.5 µM | HOP-92 22.9 µM | UACC-257 16.7 µM | Hs-578T 20.5 µM | HT-29 19.7 µM | SK-OV-3 18.8 µM | IGROV-1 15.3 µM | MDA-MB-435 19.7 µM | HCT-116 19.6 µM | A498 27.7 µM | SR 19.6 µM | SF-295 18.2 µM

O=C(/C=C\c1ccccc1)N1CCc2ccccc2C1
inactive: NCI-H23 14.9 µM | CAKI-1 67.1 µM | OVCAR-8 51.9 µM | SNB-75 52.7 µM | NCI/ADR-RES 44 µM | HOP-92 42.6 µM | UACC-257 38.9 µM | Hs-578T 60.7 µM | HT-29 51.4 µM | SK-OV-3 > 100 µM | IGROV-1 73.8 µM | MDA-MB-435 27.2 µM | HCT-116 34.6 µM | A498 53.2 µM | SR 24.1 µM | SF-295 34.9 µM | LOX IMVI 79.1 µM

O=C1CC(=O)NC(NN2C(=O)CSC2C(=O)c2ccco2)=N1 (configuration not stated)
inactive: NCI-H23 > 100 µM | CAKI-1 > 100 µM | OVCAR-8 > 100 µM | MOLT-4 > 100 µM | SNB-75 12.2 µM | SN12C > 100 µM | NCI/ADR-RES > 100 µM | A549 > 100 µM | HOP-92 > 100 µM | UACC-257 > 100 µM | Hs-578T > 100 µM | HT-29 > 100 µM | SK-OV-3 > 100 µM | IGROV-1 > 100 µM | MDA-MB-435 > 100 µM | HCT-116 > 100 µM | A498 > 100 µM | SR > 100 µM | SF-295 78.7 µM
